Source: PubChem BioAssay AID1963977 (Molecular Pharmacology Branch, DTP, NCI, 2024)

System: 624824-186-R-J3-PDC multicell spheroids, viability
Experiment: Anticancer human tumor 624824-186-R-J3-PDC patient-derived colon adenocarcinoma cell line growth inhibition [PI3K]
Conditions: for IC50: curve of first compound; for viability, T/C: stronger effect = lower value
From the text: Combinatorial screen of targeted agents with the PI3K inhibitors inavolisib, alpelisib, duvelisib, and copanlisib in multi-cell type tumor spheroids
A high-throughput screen of multi-cell type tumor spheroids was designed to identify active combinations of targeted small molecules and PI3K pathway inhibitors. Complex spheroids include a stromal component modeled by human endothelial cells (HUVEC) and fibroblasts modeled by human mesenchymal stem cells (MSCs). The concentration ranges selected for each drug and investigational agent were based upon clinically achievable concentrations if the clinical Cmax of the agent was known.
Compounds. The drugs and investigational agents: inavolisib (NSC800729), alpelisib (NSC765974), duvelisib (NSC772469), copanlisib (NSC816437), ipatasertib (NSC767898), afuresertib (NSC778305), talazoparib (NSC767125), sapanisertib (NSC764658), selumetinib (NSC741078), tovorafenib (DAY101, NSC766906), vemurafenib (NSC761431), ravoxertinib (NSC781343), sotorasib (NSC818433), MRTX1133 (NSC 836407), abemaciclib (NSC 768073), palbociclib (NSC758247), venetoclax (NSC 766270), SY5609 (NSC837396), enzalutamide (NSC755605), and darolutamide (NSC825331), were obtained from the National Cancer Institute (NCI) Developmental Therapeutics Program Chemical Repository. The FDA-approved anticancer drug set is available from the NCI Developmental Therapeutics Program. […] The stock solutions were prepared in dimethyl sulfoxide (DMSO, Sigma-Aldrich, St. Louis, MO, cat. D2650) at 800-fold the tested concentration and stored at -70 degrees C prior to their use. All drugs and investigational agents were tested over a range starting from a high concentration at or near the clinical Cmax and decreasing in half-log increments. If the clinical Cmax for an agent had not been determined, the highest concentration tested was 10 microM.
Cell Culture. All cells were maintained in an incubator at 37 degrees C and 5% CO2 with 95% humidity. The PDC lines were cultured according to standard operating procedures established by the NCI PDMR (https://pdmr.cancer.gov/sops/default.htm). All PDCs were thawed and cultured in Matrigel-coated flasks prepared with a working solution of 1X Ham's F-12 nutrient mix, without supplementation (Invitrogen, Waltham, MA, cat. 11765054), 100 U/mL penicillin-streptomycin (Invitrogen, cat. 15140122), and 2.5% Matrigel (Corning Inc., Corning, NY, cat. 354248) for the first three passages. The 354836-022-R-J1-PDC, 475296-252-R-J1-PDC, and 997726-040-R-J2-PDC lines were cultured in 6A media, which includes advanced DMEM/F-12 (Thermo Fisher Scientific, cat. 12634028), 10 mM HEPES (Thermo Fisher Scientific, cat. 15630080), 1X GlutaMAX supplement (Thermo Fisher Scientific, cat. 35050061), 0.1 mg/mL primocin (InvivoGen, San Diego, CA, cat. ant-pm-2), 10% defined fetal bovine serum, heat inactivated (HyClone Laboratories Inc., Logan, UT, cat. SH30070.03HI), 50% L-WRN conditioned media (ATCC, cat. CRL-3276), 1.25 mM N-Acetyl-L-cysteine (Sigma-Aldrich, cat. A9165), 10 mM nicotinamide (Sigma-Aldrich, cat. N0636), 1X B-27 supplement (Thermo Fisher Scientific, cat. 17504044), 1X N-2 supplement (Thermo Fisher Scientific, cat. 17502048), and 10 microM Y-27632 dihydrochloride (Tocris Bioscience, Bristol, United Kingdom, cat. 1254). The 624824-186-R-J2-PDC line was cultured in 6C/Colon 1B media, which includes all 6A media components plus 50 ng/mL human EGF recombinant protein (Thermo Fisher Scientific, cat. PHG0311). […]
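Also: spheroids exposed to agents for seven days before luminescence read.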
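For viability, T/C in this document: luminescent signal used as a stand-in for spheroid viability; percent viability relative to DMSO vehicle control wells taken as 100%.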

IC50 (second compound 0.00316 µM): 6.8 µM | IC50 (second compound 0.01 µM): 7.52 µM | IC50 (second compound 0.0316 µM): 5.35 µM | IC50 (second compound 0.1 µM): 7.68 µM | IC50 (second compound 0.316 µM): 4.24 µM | IC50 (second compound 1 µM): 3.44 µM
SMILES: CC(C)NCC(C(=O)N1CCN(c2ncnc3c2C(C)CC3O)CC1)c1ccc(Cl)cc1 (configuration not stated) + CC(Nc1ccc2c(c1)OCCn1cc(N3C(=O)OCC3C(F)F)nc1-2)C(N)=O
viability, T/C (second compound 0.00316 µM, first compound 0.0316 µM): 107% | viability, T/C (second compound 0.00316 µM, first compound 0.1 µM): 96.8% | viability, T/C (second compound 0.00316 µM, first compound 0.316 µM): 97.7% | viability, T/C (second compound 0.00316 µM, first compound 1 µM): 73.1% | viability, T/C (second compound 0.00316 µM, first compound 3.16 µM): 59.9% | viability, T/C (second compound 0.00316 µM, first compound 10 µM): 45.4% | viability, T/C (second compound 0.01 µM, first compound 0.0316 µM): 98.3% | viability, T/C (second compound 0.01 µM, first compound 0.1 µM): 96.8% | viability, T/C (second compound 0.01 µM, first compound 0.316 µM): 99.4% | viability, T/C (second compound 0.01 µM, first compound 1 µM): 72% | viability, T/C (second compound 0.01 µM, first compound 3.16 µM): 63.8% | viability, T/C (second compound 0.01 µM, first compound 10 µM): 45.3% | viability, T/C (second compound 0.0316 µM, first compound 0.0316 µM): 96.2% | viability, T/C (second compound 0.0316 µM, first compound 0.1 µM): 93.4% | viability, T/C (second compound 0.0316 µM, first compound 0.316 µM): 91.6% | viability, T/C (second compound 0.0316 µM, first compound 1 µM): 77.4% | viability, T/C (second compound 0.0316 µM, first compound 3.16 µM): 57.2% | viability, T/C (second compound 0.0316 µM, first compound 10 µM): 41.7% | viability, T/C (second compound 0.1 µM, first compound 0.0316 µM): 108% | viability, T/C (second compound 0.1 µM, first compound 0.1 µM): 94.1% | viability, T/C (second compound 0.1 µM, first compound 0.316 µM): 88.1% | viability, T/C (second compound 0.1 µM, first compound 1 µM): 83.7% | viability, T/C (second compound 0.1 µM, first compound 3.16 µM): 59.5% | viability, T/C (second compound 0.1 µM, first compound 10 µM): 46.4% | viability, T/C (second compound 0.316 µM, first compound 0.0316 µM): 96.2% | viability, T/C (second compound 0.316 µM, first compound 0.1 µM): 91.8% | viability, T/C (second compound 0.316 µM, first compound 0.316 µM): 94.4% | viability, T/C (second compound 0.316 µM, first compound 1 µM): 72.5% | viability, T/C (second compound 0.316 µM, first compound 3.16 µM): 54.2% | viability, T/C (second compound 0.316 µM, first compound 10 µM): 41.9% | viability, T/C (second compound 1 µM, first compound 0.0316 µM): 92% | viability, T/C (second compound 1 µM, first compound 0.1 µM): 88.8% | viability, T/C (second compound 1 µM, first compound 0.316 µM): 86.1% | viability, T/C (second compound 1 µM, first compound 1 µM): 65% | viability, T/C (second compound 1 µM, first compound 3.16 µM): 53.6% | viability, T/C (second compound 1 µM, first compound 10 µM): 35.1%
